Measurements from patent US20220041681A1 (MEDIMMUNE LIMITED, priority 2016, published 2022).

Test system: Healthy volunteer
Assay: Phase 1 single-ascending dose study
Details: for Median glucose peak after breakfast: 1 hour post breakfast, 3.5 hours post dose; for Median glucose peak after dinner: 1 hour post dinner, […] post dose; for Median glucose peak after lunch: 1 hour post lunch, 7 hours post dose; for Overall daily food intake compared with placebo: across breakfast, lunch and dinner
[1] = Total G933, N = 36, subjects n (%)

For `CCCCCCCCCCCCCCCC(=O)N[C@@H](CCC(=O)NCCCC[C@H](NC(=O)[C@H](CC(=O)O)NC(=O)[C@H](CO)NC(=O)C(NC(=O)[C@H](Cc1ccccc1)NC(=O)C(NC(=O)CNC(=O)[C@H](CCC(N)=O)NC(=O)[C@H](CO)NC(=O)[C@@H](N)Cc1cnc[nH]1)[C@@H](C)O)[C@@H](C)O)C(=O)N[C@@H](CO)C(=O)N[C@@H](CCC(=O)O)C(=O)N[C@@H](Cc1ccc(O)cc1)C(=O)N[C@@H](CC(C)C)C(=O)N[C@@H](CC(=O)O)C(=O)N[C@@H](CO)C(=O)N[C@@H](CCC(=O)O)C(=O)N[C@@H](CCCNC(=N)N)C(=O)N[C@@H](C)C(=O)N[C@@H](CCCNC(=N)N)C(=O)N[C@@H](CC(=O)O)C(=O)N[C@@H](Cc1ccccc1)C(=O)N[C@H](C(=O)N[C@@H](C)C(=O)N[C@@H](Cc1c[nH]c2ccccc12)C(=O)N[C@@H](CC(C)C)C(=O)N[C@@H](CCC(=O)O)C(=O)N[C@@H](C)C(=O)NCC(=O)NCC(=O)O)C(C)C)C(=O)O` (some centres unmarked) [Peptide G933], the “TEAE: Gastrointestinal Disorders” value (150 μg, N = 6, subjects n (%)) was 5 (83.3%), the “TEAE: Headache” value (150 μg, N = 6, subjects n (%)) was 1 (16.7%) and the “TEAE: Immune System Disorders” value (150 μg, N = 6, subjects n (%)) was 0. The “TEAE: Injury associated with device” value (150 μg, N = 6, subjects n (%)) was 0, the “TEAE: Injury poisoning and procedural complications” value (150 μg, N = 6, subjects n (%)) was 0 and the “TEAE: Metabolism and nutrition disorders” value (150 μg, N = 6, subjects n (%)) was 2 (33.3%). The “TEAE: Musculoskeletal and connective tissue disorders” value (150 μg, N = 6, subjects n (%)) was 0, the “TEAE: Musculoskeletal chest pain” value (150 μg, N = 6, subjects n (%)) was 0 and the “TEAE: Nasopharyngitis” value (150 μg, N = 6, subjects n (%)) was 0. The “TEAE: Nausea” value (150 μg, N = 6, subjects n (%)) was 4 (66.7%), the “TEAE: Nervous system disorders” value (150 μg, N = 6, subjects n (%)) was 1 (16.7%) and the “TEAE: Oropharyngeal pain” value (150 μg, N = 6, subjects n (%)) was 1 (16.7%). The “TEAE: Procedural dizziness” value (150 μg, N = 6, subjects n (%)) was 0, the “TEAE: Respiratory, thoracic and mediastinal disorders” value (from here on “TEAE: Respiratory”) (150 μg, N = 6, subjects n (%)) was 1 (16.7%) and the “TEAE: Seasonal allergy” value (150 μg, N = 6, subjects n (%)) was 0. The “TEAE: Subjects with at least one event” value (150 μg, N = 6, subjects n (%)) was 5 (83.3%), the “TEAE: Ventricular extrasystoles” value (150 μg, N = 6, subjects n (%)) was 0 and the “TEAE: Vomiting” value (150 μg, N = 6, subjects n (%)) was 4 (66.7%). For the same compound, the vomiting episodes (300 μg dose, 5 subjects) was “Thirty”, the tolerability (300 μg single SC dose) was “not tolerated” and the “TEAE: Abdominal distension” value (300 μg, N = 6, subjects n (%)) was 0. For the same compound, the “TEAE: Abdominal pain” value (300 μg, N = 6, subjects n (%)) was 0, the “TEAE: Application site erosion” value (300 μg, N = 6, subjects n (%)) was 0 and the “TEAE: Arrhythmia” value (300 μg, N = 6, subjects n (%)) was 0. The “TEAE: Atrioventricular block second degree” value (300 μg, N = 6, subjects n (%)) was 0, the “TEAE: Cardiac Disorders” value (300 μg, N = 6, subjects n (%)) was 1 (16.7%) and the “TEAE: Decreased appetite” value (300 μg, N = 6, subjects n (%)) was 0. The “TEAE: Diarrhea” value (300 μg, N = 6, subjects n (%)) was 0, the “TEAE: Dizziness” value (300 μg, N = 6, subjects n (%)) was 1 (16.7%) and the “TEAE: Gastrointestinal Disorders” value (300 μg, N = 6, subjects n (%)) was 5 (83.3%). For the same compound, the “TEAE: Headache” value (300 μg, N = 6, subjects n (%)) was 0, the “TEAE: Immune System Disorders” value (300 μg, N = 6, subjects n (%)) was 0 and the “TEAE: Injury associated with device” value (300 μg, N = 6, subjects n (%)) was 1 (16.7%). For the same compound, the “TEAE: Injury poisoning and procedural complications” value (300 μg, N = 6, subjects n (%)) was 0, the “TEAE: Metabolism and nutrition disorders” value (300 μg, N = 6, subjects n (%)) was 0 and the “TEAE: Musculoskeletal and connective tissue disorders” value (300 μg, N = 6, subjects n (%)) was 0. For the same compound, the “TEAE: Musculoskeletal chest pain” value (300 μg, N = 6, subjects n (%)) was 0, the “TEAE: Nasopharyngitis” value (300 μg, N = 6, subjects n (%)) was 0 and the “TEAE: Nausea” value (300 μg, N = 6, subjects n (%)) was 3 (50.0%). For the same compound, the “TEAE: Oropharyngeal pain” value (300 μg, N = 6, subjects n (%)) was 0, the “TEAE: Procedural dizziness” value (300 μg, N = 6, subjects n (%)) was 0 and the “TEAE: Respiratory” value (300 μg, N = 6, subjects n (%)) was 0. The “TEAE: Seasonal allergy” value (300 μg, N = 6, subjects n (%)) was 0, the “TEAE: Subjects with at least one event” value (300 μg, N = 6, subjects n (%)) was 5 (83.3%) and the “TEAE: Ventricular extrasystoles” value (300 μg, N = 6, subjects n (%)) was 1 (16.7%). For the same compound, the “TEAE: Vomiting” value (300 μg, N = 6, subjects n (%)) was 5 (83.3%), the “TEAE: Abdominal distension” value [1] was 2 (5.6%) and the “TEAE: Abdominal pain” value [1] was 1 (2.8%). For the same compound, the “TEAE: Application site erosion” value [1] was 1 (2.8%), the “TEAE: Arrhythmia” value [1] was 1 (2.8%) and the “TEAE: Atrioventricular block second degree” value [1] was 1 (2.8%). The “TEAE: Cardiac Disorders” value [1] was 3 (8.3%), the “TEAE: Decreased appetite” value [1] was 2 (5.6%) and the “TEAE: Diarrhea” value [1] was 1 (2.8%). For the same compound, the “TEAE: Dizziness” value [1] was 5 (13.9%), the “TEAE: Gastrointestinal Disorders” value [1] was 12 (33.3%) and the “TEAE: Headache” value [1] was 4 (11.1%). For the same compound, the “TEAE: Immune System Disorders” value [1] was 1 (2.8%), the “TEAE: Injury associated with device” value [1] was 1 (2.8%) and the “TEAE: Injury poisoning and procedural complications” value [1] was 1 (2.8%). The “TEAE: Metabolism and nutrition disorders” value [1] was 2 (5.6%), the “TEAE: Musculoskeletal and connective tissue disorders” value [1] was 1 (2.8%) and the “TEAE: Musculoskeletal chest pain” value [1] was 1 (2.8%). The “TEAE: Nasopharyngitis” value [1] was 1 (2.8%), the “TEAE: Nausea” value [1] was 8 (22.2%) and the “TEAE: Oropharyngeal pain” value [1] was 1 (2.8%). The “TEAE: Procedural dizziness” value [1] was 1 (2.8%), the “TEAE: Respiratory” value [1] was 1 (2.8%) and the “TEAE: Seasonal allergy” value [1] was 1 (2.8%). The “TEAE: Subjects with at least one event” value [1] was 21 (58.3%), the “TEAE: Ventricular extrasystoles” value [1] was 1 (2.8%) and the “TEAE: Vomiting” value [1] was 10 (27.8%). The “severity of treatment-emergent adverse events” value (all doses) was “Grade 1 (mild) or Grade 2 (moderate)”, the “overall daily food intake” value (all doses compared with placebo, in words) was “reduction in overall daily food intake” and the plasma glucose levels (all doses, around meal times, in words) was “glucose lowering effect”. For the same compound, the ADA positive subjects (baseline or post-baseline) was “No subjects were ADA positive”, the “tolerability with respect to nausea, vomiting, tachycardia and blood pressure” value (doses up to 150 μg) was “acceptable” and the “geometric mean t1/2” value (single SC dose) was 10 to 12 h. For the same compound, the “Median diastolic BP maximum post dose change” value (single dose 5 μg) was 13 mm Hg, the “Number of subjects with vomiting” value (single dose 5 μg) was 0(0) and the vomiting episodes (single dose 5 μg) was 0(0). The “Median glucose peak after breakfast” value (single dose 5 μg) was 6.2 mmol/L, the “Median glucose peak after dinner” value (single dose 5 μg) was 7.0 mmol/L and the “Median glucose peak after lunch” value (single dose 5 μg) was 4.9 mmol/L. For the same compound, the “Overall daily food intake compared with placebo” value (single dose 5 μg) was 100%, the “Median diastolic BP maximum post dose change” value (single dose 10 μg) was 8 mm Hg and the “Number of subjects with vomiting” value (single dose 10 μg) was 0(0). The vomiting episodes (single dose 10 μg) was 0(0), the “Median glucose peak after breakfast” value (single dose 10 μg) was 5.8 mmol/L and the “Median glucose peak after dinner” value (single dose 10 μg) was 6.0 mmol/L. The “Median glucose peak after lunch” value (single dose 10 μg) was 5.1 mmol/L, the “Overall daily food intake compared with placebo” value (single dose 10 μg) was 100% and the “Number of subjects with vomiting” value (single dose 30 μg) was 0(0). For the same compound, the vomiting episodes (single dose 30 μg) was 0(0), the “Median glucose peak after breakfast” value (single dose 30 μg) was 5.4 mmol/L and the “Median glucose peak after dinner” value (single dose 30 μg) was 5.2 mmol/L. The “Median glucose peak after lunch” value (single dose 30 μg) was 4.4 mmol/L, the “Overall daily food intake compared with placebo” value (single dose 30 μg) was 96% and the “Median diastolic BP maximum post dose change” value (single dose 100 μg) was 16 mm Hg. For the same compound, the “Number of subjects with vomiting” value (single dose 100 μg) was 1(1), the vomiting episodes (single dose 100 μg) was 1(1) and the “Median glucose peak after breakfast” value (single dose 100 μg) was 5.5 mmol/L. For the same compound, the “Median glucose peak after dinner” value (single dose 100 μg) was 5.2 mmol/L, the “Median glucose peak after lunch” value (single dose 100 μg) was 4.7 mmol/L and the “Overall daily food intake compared with placebo” value (single dose 100 μg) was 82%. For the same compound, the “Median diastolic BP maximum post dose change” value (single dose 150 μg) was 15 mm Hg, the “Number of subjects with vomiting” value (single dose 150 μg) was 4 and the vomiting episodes (single dose 150 μg) was 9. For the same compound, the “Median glucose peak after breakfast” value (single dose 150 μg) was 5.1 mmol/L, the “Median glucose peak after dinner” value (single dose 150 μg) was 5.2 mmol/L and the “Median glucose peak after lunch” value (single dose 150 μg) was 5.1 mmol/L. For the same compound, the “Overall daily food intake compared with placebo” value (single dose 150 μg) was 60%, the “Median diastolic BP maximum post dose change” value (single dose 300 μg) was 19 mm Hg and the “Number of subjects with vomiting” value (single dose 300 μg) was 5. For the same compound, the vomiting episodes (single dose 300 μg) was 30, the “Median glucose peak after breakfast” value (single dose 300 μg) was 4.7 mmol/L and the “Median glucose peak after dinner” value (single dose 300 μg) was 4.9 mmol/L. The “Median glucose peak after lunch” value (single dose 300 μg) was 5.1 mmol/L and the “Overall daily food intake compared with placebo” value (single dose 300 μg) was 23%.
